# Residues, ends and D or L forms follow the SMILES beside them.
# Assays:
# [1] = alanylglutamine compared to glutamine; cited from earlier work
# [2] = cited from earlier work
# muscle fatigue = assay: Test Example 1: muscle fatigue status of healthy males consuming alanylglutamine continuously for 1 month; format: in vivo, human; conditions: for Muscle fatigue status: 1 month
# Procedure: Twenty-six healthy males ages 21 to 60 consumed alanylglutamine (manufactured by Kyowa Hakko Co., Ltd.) continuously for 1 month, and the muscle fatigue status of the subjects was evaluated.
# [3] = alanylglutamine compared to glutamine; cited from earlier work; remark: listed apart in the source
smiles,measurement,setting,value
C[C@H](N)C(=O)N[C@@H](CCC(N)=O)C(=O)O [alanylglutamine] (H-Ala-Gln-OH),heat stability,[1],superior
same,degradation in the body,[2],immediately degraded into alanine and glutamine
same,subjects with alleviation of muscle pain after exercise,"muscle fatigue; of the 15 listed subjects (26 in all), 1 month consumption",10 subjects
same,subjects in whom relief of muscle fatigue was observed,"muscle fatigue; of the 26 subjects, 1 month consumption",15 subjects
same,Muscle fatigue status,"muscle fatigue; subject 21 to 25 years, before going to bed, 2 g/administration",Disappearance of muscle pain
same,Muscle fatigue status,"muscle fatigue; subject 26 to 30 years, after exercising, 1 g/administration",Substantial relief of muscle pain
same,Muscle fatigue status,"muscle fatigue; subject 26 to 30 years, before and after exercise, approximately 1 g/administration",Reduction of muscle fatigue
same,Muscle fatigue status,"muscle fatigue; subject 31 to 35 years, before exercise, 8 g/administration",Feeling of damage relief
same,Muscle fatigue status,"muscle fatigue; subject 31 to 35 years, morning and before going to bed, 0.6 g/administration",Reduction of muscle pain after
same,Muscle fatigue status,"muscle fatigue; subject 31 to 35 years, morning, 0.5 g/administration",Lighter muscle pain after
same,Muscle fatigue status,"muscle fatigue; subject 36 to 40 years, morning and evening, 0.5 g/administration",Reduction of muscle pain
same,Muscle fatigue status,"muscle fatigue; subject 45 to 50 years, before going to bed, approximately 2.5 g/administration",Reduction of stiff shoulders the
same,Muscle fatigue status,"muscle fatigue; subject 46 to 50 years, after meals morning and evening, 1 g/administration",Less fatigue and muscle pain
same,Muscle fatigue status,"muscle fatigue; subject 51 to 55 years, before going to bed, approximately 0.5 g/administration",Became less prone to fatigue
same,Muscle fatigue status,"muscle fatigue; subject 51 to 55 years, every morning, 1 g/administration",Alleviation of muscle pain after
same,Muscle fatigue status,"muscle fatigue; subject 56 to 60 years, morning and evening, 0.5 g/administration",Reduction of muscle pain
same,solubility in aqueous solutions,[3],superior

# From patent US20100168040A1, “MUSCLE FATIGUE REMEDY” (Kyowa Hakko Kogyo Co., Ltd., priority 2006, published 2010)
